Key:
Assay type in all cases: in vivo
Settings in all cases: 14th day after application
[1] = tested on: barnyardgrass (Echinochloa crus-qalli L.); assay: Test Example 1: foliar treatment, growth inhibition rate on 14th day
Method in brief: (§1)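 Using a small sprayer, formulated compound in water (0.1 vol % surfactant, 1,000 L/ha) was applied to seedlings grown from seed in upland soil. Fourteen days on, growth state was observed and expressed as percent inhibition from 0 to 100.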

[2] = tested on: corn (Zea mays L.); assay: as above
Method in brief: as §1

[3] = tested on: crabgrass (Digitaria sanquinalis L.); assay: as above
Method in brief: as §1

[4] = tested on: green foxtail (Setaria viridis L.); assay: as above
Method in brief: (§2)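 Compounds applied once to leaves of pot-grown plants; wild oat at 0.4–1.2 leaf, foxtail 0.5–3.2, rice 0.2–2.7, soybean primary leaf. Inhibition estimated by eye on day 14.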

[5] = tested on: italian ryegrass (Lolium multiflorum Lam.); assay: as above
Method in brief: as §1

[6] = tested on: redroot pigweed (Amaranthus retroflexus L.); assay: as above
Method in brief: as §1

[7] = tested on: rice (Oryza sativa L.); assay: as above
Method in brief: as §2

[8] = tested on: soybean (Glycine max Merr.); assay: as above
Method in brief: as §2

[9] = tested on: wheat (Triticum aestivum L.); assay: as above
Method in brief: as §1

[10] = tested on: wild oat (Avena fatua L.); assay: as above
Method in brief: as §2

[11] = tested on: barnyardgrass (Echinochloa crus-qalli L.); assay: Test Example 2: soil application on the day after sowing, growth inhibition rate on 14th day
Method in brief: (§3)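 Read-out is visual percent growth inhibition 14 days post-application, scaled from 0 (as non-treated) to 100 (complete kill). Treatment: soil application by small sprayer the day after sowing, compound formulations diluted in water equivalent to 1,000 L/ha.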

[12] = tested on: corn (Zea mays L.); assay: as above
Method in brief: as §3

[13] = tested on: crabgrass (Digitaris sanquinalis L.); assay: as above
Method in brief: as §3

[14] = tested on: green foxtail (Setaria viridis L.); assay: as above
Method in brief: as §3

[15] = tested on: prickly sida (Sida spinosa L.); assay: as above
Method in brief: as §3

[16] = tested on: redroot pigweed (Amaranthus retroflexus L.); assay: as above
Method in brief: as §3

[17] = tested on: rice (Oryza sativa L.); assay: as above
Method in brief: as §3

[18] = tested on: soybean (Glycine max Merr.); assay: as above
Method in brief: as §3

[19] = tested on: velvetleaf (Abutilon theophrasti MEDIC.); assay: as above
Method in brief: as §3

[20] = tested on: wheat (Triticum aestivum L.); assay: as above
Method in brief: as §3

[21] = active ingredient amount 31 g/ha
[22] = active ingredient amount 500 g/ha

Structure (SMILES) | Growth inhibition rate (%) Barnyardgrass [1, 21] [%] | Growth inhibition rate (%) Corn [2, 21] [%] | Growth inhibition rate (%) Crabgrass [3, 21] [%] | Growth inhibition rate (%) Green foxtail [4, 21] [%] | Growth inhibition rate (%) Italian ryegrass [5, 21] [%] | Growth inhibition rate (%) Redroot pigweed [6, 21] [%] | Growth inhibition rate (%) Rice [7, 21] [%] | Growth inhibition rate (%) Soybean [8, 21] [%] | Growth inhibition rate (%) Wheat [9, 21] [%] | Growth inhibition rate (%) Wild oat [10, 21] [%] | Growth inhibition rate (%) Barnyardgrass [11, 21] [%] | Growth inhibition rate (%) Corn [12, 21] [%] | Growth inhibition rate (%) Crabgrass [13, 21] [%] | Growth inhibition rate (%) Green foxtail [14, 21] [%] | Growth inhibition rate (%) Prickly sida [15, 21] [%] | Growth inhibition rate (%) Redroot pigweed [16, 21] [%] | Growth inhibition rate (%) Rice [17, 21] [%] | Growth inhibition rate (%) Soybean [18, 21] [%] | Growth inhibition rate (%) Velvetleaf [19, 21] [%] | Growth inhibition rate (%) Wheat [20, 21] [%] | further results
Cc1ccc(Oc2ncc(C(F)(F)F)cc2Cl)cc1-c1c(OS(C)(=O)=O)c(C)nn(C)c1=O [1-62] | 100 | 100 | 100 | 100 | 98 | 0 | 88 | 0 | 90 | 99 | 100 | 0 | 100 | 99 | 0 | 0 | 20 | 0 | 0 | 0 | –
CCc1ccc(Oc2ncc(C(F)(F)F)cc2Cl)cc1-c1c(O)cnn(C)c1=O [1-95] | 100 | 100 | 100 | 100 | 95 | 0 | 80 | 0 | 45 | 99 | 100 | 80 | 100 | 100 | 0 | 0 | 50 | 0 | 0 | 0 | –
CC(=O)Oc1c(C)nn(C)c(=O)c1-c1cc(Oc2cnc3ccccc3c2)ccc1C [Compound 2-146] | – | – | – | – | – | – | – | – | – | – | – | – | – | – | – | – | – | – | – | – | Growth inhibition rate (%) Barnyardgrass [1, 22]: 99%; Growth inhibition rate (%) Corn [2, 22]: 85%; Growth inhibition rate (%) Crabgrass [3, 22]: 95%; Growth inhibition rate (%) Green foxtail [4, 22]: 95%; Growth inhibition rate (%) Italian ryegrass [5, 22]: 20%; Growth inhibition rate (%) Redroot pigweed [6, 22]: 0%; Growth inhibition rate (%) Rice [7, 22]: 75%; Growth inhibition rate (%) Soybean [8, 22]: 10%; Growth inhibition rate (%) Wheat [9, 22]: 50%; Growth inhibition rate (%) Wild oat [10, 22]: 80%; Growth inhibition rate (%) Barnyardgrass [11, 22]: 100%; Growth inhibition rate (%) Corn [12, 22]: 20%; Growth inhibition rate (%) Crabgrass [13, 22]: 100%; Growth inhibition rate (%) Green foxtail [14, 22]: 100%; Growth inhibition rate (%) Prickly sida [15, 22]: 0%; Growth inhibition rate (%) Redroot pigweed [16, 22]: 0%; Growth inhibition rate (%) Rice [17, 22]: 85%; Growth inhibition rate (%) Soybean [18, 22]: 0%; Growth inhibition rate (%) Velvetleaf [19, 22]: 50%; Growth inhibition rate (%) Wheat [20, 22]: 0%
CCc1ccc(Oc2nc3ccc(Cl)cc3o2)cc1-c1c(OC(C)=O)cnn(C)c1=O [Compound 2-160] | 100 | 100 | 100 | 100 | 100 | 0 | 100 | 30 | 99 | 100 | 100 | 0 | 99 | 100 | 50 | 95 | 0 | 0 | 0 | 0 | –

— US10870638B2, “Pyridazinone compound or its salt, and herbicide containing it” (ISHIHARA SANGYO KAISHA, LTD., priority 2016, dated 2020)
